Reference: the NIST ThermoML archive (doi:10.1016/j.tca.2006.10.025)
± gives the expanded uncertainty stated by the source.

Legend:
[1] = excess molar enthalpy (molar enthalpy of mixing); xn = mol fraction of the nth substance listed; conditions: 303.15 K, 101 kPa, Liquid, Flow calorimetry
[2] = molar heat capacity at constant pressure; xn = mol fraction of the nth substance listed; conditions: 303.15 K, 101 kPa, Liquid, Small sample (50 mg) DSC
[3] = molar heat capacity at constant pressure; conditions: 101.33 kPa, Liquid, Small sample (50 mg) DSC
[4] = 303.15 K; 101.33 kPa; Liquid; Vibrating tube method

SMILES: C[S+](C)[O-] [dimethyl sulfoxide] + CO
- excess molar enthalpy ([1]; x1 = 0.0176): 0.00191 ± 0.000239 kcal/mol
- excess molar enthalpy ([1]; x1 = 0.0233): 0.00215 ± 0.000239 kcal/mol
- excess molar enthalpy ([1]; x1 = 0.0455): 0.000717 ± 0.000239 kcal/mol
- excess molar enthalpy ([1]; x1 = 0.0667): -0.00263 ± 0.000239 kcal/mol
- excess molar enthalpy ([1]; x1 = 0.087): -0.00765 ± 0.000478 kcal/mol
- excess molar enthalpy ([1]; x1 = 0.1251): -0.0194 ± 0.000478 kcal/mol
- excess molar enthalpy ([1]; x1 = 0.1601): -0.0318 ± 0.000717 kcal/mol
- excess molar enthalpy ([1]; x1 = 0.2223): -0.0543 ± 0.000956 kcal/mol
- excess molar enthalpy ([1]; x1 = 0.276): -0.0712 ± 0.000956 kcal/mol
- excess molar enthalpy ([1]; x1 = 0.3639): -0.0908 ± 0.0012 kcal/mol
- excess molar enthalpy ([1]; x1 = 0.4619): -0.102 ± 0.00143 kcal/mol
- excess molar enthalpy ([1]; x1 = 0.5336): -0.103 ± 0.00143 kcal/mol
- excess molar enthalpy ([1]; x1 = 0.6318): -0.0985 ± 0.00143 kcal/mol
- excess molar enthalpy ([1]; x1 = 0.6959): -0.0891 ± 0.0012 kcal/mol
- excess molar enthalpy ([1]; x1 = 0.7744): -0.0758 ± 0.000956 kcal/mol
- excess molar enthalpy ([1]; x1 = 0.8207): -0.0605 ± 0.000956 kcal/mol
- excess molar enthalpy ([1]; x1 = 0.8728): -0.0442 ± 0.000717 kcal/mol
- excess molar enthalpy ([1]; x1 = 0.9321): -0.0232 ± 0.000478 kcal/mol
- molar heat capacity at constant pressure ([2]; x1 = 0.0308): 84 ± 1.3 J/K/mol
- molar heat capacity at constant pressure ([2]; x1 = 0.061): 85.8 ± 1.3 J/K/mol
- molar heat capacity at constant pressure ([2]; x1 = 0.1103): 88.3 ± 1.4 J/K/mol
- molar heat capacity at constant pressure ([2]; x1 = 0.197): 93.9 ± 1.5 J/K/mol
- molar heat capacity at constant pressure ([2]; x1 = 0.2818): 97.8 ± 1.5 J/K/mol
- molar heat capacity at constant pressure ([2]; x1 = 0.3571): 102.3 ± 1.6 J/K/mol
- molar heat capacity at constant pressure ([2]; x1 = 0.4676): 109.7 ± 1.7 J/K/mol
- molar heat capacity at constant pressure ([2]; x1 = 0.5886): 116.1 ± 1.8 J/K/mol
- molar heat capacity at constant pressure ([2]; x1 = 0.6833): 124.6 ± 1.9 J/K/mol
- molar heat capacity at constant pressure ([2]; x1 = 0.8398): 137.5 ± 2.1 J/K/mol
- molar heat capacity at constant pressure ([2]; x1 = 0.9068): 142.5 ± 2.2 J/K/mol
- molar heat capacity at constant pressure ([2]; x1 = 0.923): 144.6 ± 2.2 J/K/mol

SMILES: CCO [ethanol]
- molar heat capacity at constant pressure ([3]; 288.15 K): 108.8 ± 1.7 J/K/mol
- molar heat capacity at constant pressure ([3]; 293.15 K): 111 ± 1.7 J/K/mol
- molar heat capacity at constant pressure ([3]; 298.15 K): 113.5 ± 1.8 J/K/mol
- molar heat capacity at constant pressure ([3]; 303.15 K): 115.7 ± 1.8 J/K/mol
- molar heat capacity at constant pressure ([3]; 308.15 K): 118.6 ± 1.8 J/K/mol
- molar heat capacity at constant pressure ([3]; 313.15 K): 121.6 ± 1.9 J/K/mol
- molar heat capacity at constant pressure ([3]; 318.15 K): 125.1 ± 1.9 J/K/mol
- molar heat capacity at constant pressure ([3]; 323.15 K): 128.2 ± 2 J/K/mol
- mass density [4]: 780.79 ± 0.16 kg/m3

SMILES: CCCCCCO [hexan-1-ol]
- molar heat capacity at constant pressure ([3]; 288.15 K): 231.6 ± 3.6 J/K/mol
- molar heat capacity at constant pressure ([3]; 293.15 K): 237.5 ± 3.7 J/K/mol
- molar heat capacity at constant pressure ([3]; 298.15 K): 241.3 ± 3.7 J/K/mol
- molar heat capacity at constant pressure ([3]; 303.15 K): 246 ± 3.8 J/K/mol
- molar heat capacity at constant pressure ([3]; 308.15 K): 251 ± 3.9 J/K/mol
- molar heat capacity at constant pressure ([3]; 313.15 K): 256.2 ± 4 J/K/mol
- molar heat capacity at constant pressure ([3]; 318.15 K): 262.5 ± 4.1 J/K/mol
- molar heat capacity at constant pressure ([3]; 323.15 K): 268.9 ± 4.2 J/K/mol
- mass density [4]: 811.39 ± 0.31 kg/m3

SMILES: CCCCCCO [hexan-1-ol] + C[S+](C)[O-]
- excess molar enthalpy ([1]; x2 = 0.0682): 0.0863 ± 0.00167 kcal/mol
- excess molar enthalpy ([1]; x2 = 0.1277): 0.153 ± 0.00215 kcal/mol
- excess molar enthalpy ([1]; x2 = 0.1801): 0.202 ± 0.00263 kcal/mol
- excess molar enthalpy ([1]; x2 = 0.2265): 0.241 ± 0.00311 kcal/mol
- excess molar enthalpy ([1]; x2 = 0.3053): 0.286 ± 0.00359 kcal/mol
- excess molar enthalpy ([1]; x2 = 0.3694): 0.31 ± 0.00382 kcal/mol
- excess molar enthalpy ([1]; x2 = 0.4677): 0.325 ± 0.00406 kcal/mol
- excess molar enthalpy ([1]; x2 = 0.5394): 0.326 ± 0.00406 kcal/mol
- excess molar enthalpy ([1]; x2 = 0.6374): 0.307 ± 0.00382 kcal/mol
- excess molar enthalpy ([1]; x2 = 0.7251): 0.278 ± 0.00359 kcal/mol
- excess molar enthalpy ([1]; x2 = 0.7786): 0.248 ± 0.00311 kcal/mol
- excess molar enthalpy ([1]; x2 = 0.8406): 0.207 ± 0.00263 kcal/mol
- excess molar enthalpy ([1]; x2 = 0.8755): 0.178 ± 0.00239 kcal/mol
- excess molar enthalpy ([1]; x2 = 0.9134): 0.134 ± 0.00215 kcal/mol
- excess molar enthalpy ([1]; x2 = 0.9336): 0.109 ± 0.00191 kcal/mol
- excess molar enthalpy ([1]; x2 = 0.9547): 0.0791 ± 0.00191 kcal/mol
- excess molar enthalpy ([1]; x2 = 0.9768): 0.0433 ± 0.00167 kcal/mol
- molar heat capacity at constant pressure ([2]; x2 = 0.1102): 239.9 ± 3.7 J/K/mol
- molar heat capacity at constant pressure ([2]; x2 = 0.1949): 231.7 ± 3.6 J/K/mol
- molar heat capacity at constant pressure ([2]; x2 = 0.2888): 222.5 ± 3.4 J/K/mol
- molar heat capacity at constant pressure ([2]; x2 = 0.3759): 216.5 ± 3.4 J/K/mol
- molar heat capacity at constant pressure ([2]; x2 = 0.4388): 211.5 ± 3.3 J/K/mol
- molar heat capacity at constant pressure ([2]; x2 = 0.535): 199.2 ± 3.1 J/K/mol
- molar heat capacity at constant pressure ([2]; x2 = 0.5365): 199.4 ± 3.1 J/K/mol
- molar heat capacity at constant pressure ([2]; x2 = 0.6311): 190.4 ± 3 J/K/mol
- molar heat capacity at constant pressure ([2]; x2 = 0.7339): 181.8 ± 2.8 J/K/mol
- molar heat capacity at constant pressure ([2]; x2 = 0.8062): 171 ± 2.6 J/K/mol
- molar heat capacity at constant pressure ([2]; x2 = 0.8704): 164.7 ± 2.6 J/K/mol
- molar heat capacity at constant pressure ([2]; x2 = 0.9359): 158.8 ± 2.5 J/K/mol

SMILES: CO [methanol]
- molar heat capacity at constant pressure ([3]; 288.15 K): 78.1 ± 1.2 J/K/mol
- molar heat capacity at constant pressure ([3]; 293.15 K): 79.3 ± 1.2 J/K/mol
- molar heat capacity at constant pressure ([3]; 298.15 K): 81 ± 1.3 J/K/mol
- molar heat capacity at constant pressure ([3]; 303.15 K): 82.2 ± 1.3 J/K/mol
- molar heat capacity at constant pressure ([3]; 308.15 K): 83.4 ± 1.3 J/K/mol
- molar heat capacity at constant pressure ([3]; 313.15 K): 85.6 ± 1.3 J/K/mol
- molar heat capacity at constant pressure ([3]; 318.15 K): 87.5 ± 1.4 J/K/mol
- molar heat capacity at constant pressure ([3]; 323.15 K): 89.5 ± 1.4 J/K/mol
- mass density [4]: 781.81 ± 0.16 kg/m3

SMILES: CCCCCCCCO [octan-1-ol]
- molar heat capacity at constant pressure ([3]; 288.15 K): 294.2 ± 4.6 J/K/mol
- molar heat capacity at constant pressure ([3]; 293.15 K): 300.3 ± 4.7 J/K/mol
- molar heat capacity at constant pressure ([3]; 298.15 K): 304.4 ± 4.7 J/K/mol
- molar heat capacity at constant pressure ([3]; 303.15 K): 309.2 ± 4.8 J/K/mol
- molar heat capacity at constant pressure ([3]; 308.15 K): 314.4 ± 4.9 J/K/mol
- molar heat capacity at constant pressure ([3]; 313.15 K): 319.5 ± 5 J/K/mol
- molar heat capacity at constant pressure ([3]; 318.15 K): 326.2 ± 5.1 J/K/mol
- molar heat capacity at constant pressure ([3]; 323.15 K): 332.7 ± 5.2 J/K/mol
- mass density [4]: 818.24 ± 0.18 kg/m3

SMILES: CCCCCCCCO [octan-1-ol] + C[S+](C)[O-]
- excess molar enthalpy ([1]; x2 = 0.0847): 0.112 ± 0.00191 kcal/mol
- excess molar enthalpy ([1]; x2 = 0.1562): 0.195 ± 0.00263 kcal/mol
- excess molar enthalpy ([1]; x2 = 0.2173): 0.257 ± 0.00335 kcal/mol
- excess molar enthalpy ([1]; x2 = 0.2702): 0.29 ± 0.00359 kcal/mol
- excess molar enthalpy ([1]; x2 = 0.3571): 0.331 ± 0.00406 kcal/mol
- excess molar enthalpy ([1]; x2 = 0.4254): 0.35 ± 0.0043 kcal/mol
- excess molar enthalpy ([1]; x2 = 0.5262): 0.354 ± 0.00454 kcal/mol
- excess molar enthalpy ([1]; x2 = 0.5968): 0.351 ± 0.0043 kcal/mol
- excess molar enthalpy ([1]; x2 = 0.6896): 0.332 ± 0.00406 kcal/mol
- excess molar enthalpy ([1]; x2 = 0.7692): 0.304 ± 0.00382 kcal/mol
- excess molar enthalpy ([1]; x2 = 0.8163): 0.273 ± 0.00359 kcal/mol
- excess molar enthalpy ([1]; x2 = 0.8696): 0.228 ± 0.00311 kcal/mol
- excess molar enthalpy ([1]; x2 = 0.8988): 0.195 ± 0.00287 kcal/mol
- excess molar enthalpy ([1]; x2 = 0.9302): 0.15 ± 0.00239 kcal/mol
- excess molar enthalpy ([1]; x2 = 0.9467): 0.121 ± 0.00239 kcal/mol
- excess molar enthalpy ([1]; x2 = 0.9638): 0.0868 ± 0.00239 kcal/mol
- excess molar enthalpy ([1]; x2 = 0.9816): 0.0468 ± 0.00239 kcal/mol
- molar heat capacity at constant pressure ([2]; x2 = 0.0953): 296.5 ± 4.6 J/K/mol
- molar heat capacity at constant pressure ([2]; x2 = 0.1847): 284.2 ± 4.4 J/K/mol
- molar heat capacity at constant pressure ([2]; x2 = 0.3137): 264.7 ± 4.1 J/K/mol
- molar heat capacity at constant pressure ([2]; x2 = 0.3478): 256.2 ± 4 J/K/mol
- molar heat capacity at constant pressure ([2]; x2 = 0.4629): 241.9 ± 3.7 J/K/mol
- molar heat capacity at constant pressure ([2]; x2 = 0.5855): 221.6 ± 3.4 J/K/mol
- molar heat capacity at constant pressure ([2]; x2 = 0.6299): 215.1 ± 3.3 J/K/mol
- molar heat capacity at constant pressure ([2]; x2 = 0.7302): 200.6 ± 3.1 J/K/mol
- molar heat capacity at constant pressure ([2]; x2 = 0.7656): 193.2 ± 3 J/K/mol
- molar heat capacity at constant pressure ([2]; x2 = 0.842): 182.1 ± 2.8 J/K/mol
- molar heat capacity at constant pressure ([2]; x2 = 0.8956): 173.1 ± 2.7 J/K/mol
- molar heat capacity at constant pressure ([2]; x2 = 0.9603): 162.4 ± 2.5 J/K/mol

SMILES: CCCO [propan-1-ol]
- molar heat capacity at constant pressure ([3]; 288.15 K): 139 ± 2.2 J/K/mol
- molar heat capacity at constant pressure ([3]; 293.15 K): 142.3 ± 2.2 J/K/mol
- molar heat capacity at constant pressure ([3]; 298.15 K): 144.9 ± 2.2 J/K/mol
- molar heat capacity at constant pressure ([3]; 303.15 K): 148.3 ± 2.3 J/K/mol
- molar heat capacity at constant pressure ([3]; 308.15 K): 151 ± 2.3 J/K/mol
- molar heat capacity at constant pressure ([3]; 313.15 K): 153.7 ± 2.4 J/K/mol
- molar heat capacity at constant pressure ([3]; 318.15 K): 157.1 ± 2.4 J/K/mol
- molar heat capacity at constant pressure ([3]; 323.15 K): 160.1 ± 2.5 J/K/mol
- mass density [4]: 795.48 ± 0.15 kg/m3
